Where two headings read alike, the source gives them in different places.
How the values were obtained:
[1] = Critical micelle concentration (CMC) in water by the stalagmometric method (surface tension vs. concentration); type: physicochemical
Experimental: (§1) CMC of mono and di-hydrophilic moiety derivatized betulin derivatives were determined according to the stalagmometric method, which is one of the most common methods for measuring surface tension. Samples were prepared at different concentration of mono and di-hydrophilic moiety derivatized betulin derivatives. The surface tension of samples was calculated from the number of drops obtained by stalagmometer. CMC was calculated by plotting surface tensions vs. concentrations of sample.
CMCs of mono-glycosylated betulin, di-glycosylated betulin, mono-(poly) ethoxylated-carbonated betulin and di-(poly) ethoxylated betulin were determined in water, respectively. Surface tensions of samples obtained in above examples were determined at different concentrations according to the stalagmometric method.
as §1, with “mono-hydrophilic” for “mono and di-hydrophilic”
CMCs of two mono-hydrophilic functionalized betulin at C28-hydroxy and C3-hydroxy group were determined in water, respectively. Surface tensions of samples obtained in above examples were determined at different concentrations according to the stalagmometric method. And CMC was obtained as 0.6 mM (Betulin-carbonate-polyether (PEA) from Example 10), and 0.5 mM (Betulin-carbonate-polyether (PEG) from Example 11), respectively, by plotting surface tensions vs. concentrations of sample.

[2] = non-ionic surfactants, literature values; cited from earlier work

Compound	CMC [1]	CMC [2]
Betulin-carbonate-polyether (PEG)	0.5 mM	–
fructose oleate	–	0.4 mM
Brij 35	–	0.1 mM
Triton X-100	–	0.2 mM
C=C(C)[C@@H]1CC[C@]2(COC3OC(CO)C(O)C(O)C3O)CC[C@]3(C)C(CCC4[C@@]5(C)CC[C@H](O)C(C)(C)C5CC[C@]43C)C12 (some centres unmarked) [mono-glycosylated betulin, glucose-betulin]	0.8 mM	–
Betulin-carbonate-polyether (PEA)	0.6 mM	–
C=C(C)[C@@H]1CC[C@]2(COC3OC(CO)C(O)C(O)C3O)CC[C@]3(C)C(CCC4[C@@]5(C)CC[C@H](OC6OC(CO)C(O)C(O)C6O)C(C)(C)C5CC[C@]43C)C12 (some centres unmarked) [di-glycosylated betulin, diglucose-betulin]	1.0 mM	–
sucrose monolaurate	–	0.45 mM

— US20250154195A1, “NOVEL BETULIN DERIVATIVES, AND THEIR MANUFACTURING METHOD AND USE AS SURFACTANT” (priority 2022, published 2025)
